Results as given in patent US20120065231A1, “THIOPHENE DERIVATIVE” (SUMITOMO CHEMICAL COMPANY LTD., priority 2009, published 2012).
Like-named read-outs stand apart in the source and are kept apart here.

Experiments:
androgen receptor = biological target: T1, androgen receptor (Homo sapiens, UniProt P10275, DEL75-80/DUP470-473); assay: Androgen receptor agonist activity by reporter gene assay method; type: cell-based
T1 construct: expressed in transfected cells; host or cells: human-derived CHP212 cells, stably transformed with pGL3-TATA-3xARE and pRC/RSV-hAR Kozak
T1 sequence (P10275 with tags, fused parts or gaps DEL75-80/DUP470-473): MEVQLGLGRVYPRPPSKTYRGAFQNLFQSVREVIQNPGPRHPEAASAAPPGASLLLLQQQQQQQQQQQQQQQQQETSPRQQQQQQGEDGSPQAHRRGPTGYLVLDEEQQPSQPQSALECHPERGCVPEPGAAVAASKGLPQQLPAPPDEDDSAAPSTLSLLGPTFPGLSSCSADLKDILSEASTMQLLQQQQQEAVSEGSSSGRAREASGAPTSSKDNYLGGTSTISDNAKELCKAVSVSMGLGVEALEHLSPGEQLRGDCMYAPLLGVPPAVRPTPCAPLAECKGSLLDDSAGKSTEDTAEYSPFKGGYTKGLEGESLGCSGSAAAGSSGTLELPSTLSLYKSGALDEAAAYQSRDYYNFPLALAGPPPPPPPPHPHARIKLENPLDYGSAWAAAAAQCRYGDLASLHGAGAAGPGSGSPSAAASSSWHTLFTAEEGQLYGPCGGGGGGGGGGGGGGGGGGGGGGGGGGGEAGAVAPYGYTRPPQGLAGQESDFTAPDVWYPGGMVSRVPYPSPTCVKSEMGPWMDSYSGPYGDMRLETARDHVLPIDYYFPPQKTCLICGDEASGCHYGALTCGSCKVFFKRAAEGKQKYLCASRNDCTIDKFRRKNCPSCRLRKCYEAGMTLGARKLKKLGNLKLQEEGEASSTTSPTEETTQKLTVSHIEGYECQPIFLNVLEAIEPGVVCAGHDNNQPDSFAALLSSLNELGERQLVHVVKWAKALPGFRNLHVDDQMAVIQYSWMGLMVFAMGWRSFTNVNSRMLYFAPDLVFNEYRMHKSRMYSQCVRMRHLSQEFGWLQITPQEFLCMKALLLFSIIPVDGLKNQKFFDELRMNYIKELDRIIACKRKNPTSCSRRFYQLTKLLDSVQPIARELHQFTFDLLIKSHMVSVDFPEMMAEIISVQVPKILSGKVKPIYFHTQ
Method: After shaking for 10 minutes, the luciferase activity was measured by EnVision 2103 Multilabel Reader (PerkinElmer Co., Ltd.).

[1] = Test of S9 metabolism stability in mouse; type: in vitro ADME; conditions: mouse S9, NADPH, 37° C., reaction time 30 min
Method: (§1) For the inventive compound, was carried out test of a S9 metabolism stability in human, rat and mouse.
(§2) Using MINISORP(75×12) NUNC-IMMUNO tube, a 0.5 μM I.S.-added reaction stopping solution (500 μL) and a 10 mmol/L NADPH solution (50 μL) were mixed. Subsequently, a S9 mixture (445 μL) and pure water (5 μL) were added to prepare an I.S.-added blank sample. Likewise, a S9 mixture (445 μL) and a 100 μM test substance solution (5 μL) were added, preparing an calibration curve sample.
(§3) A S9 mixture (1068 μL) was dispensed into MINISORP (75×12) NUNC-IMMUNO tube. On ice water, a 100 μM test substance solution (12 μL) was added, and pre-incubation was carried out at 37° C. for 5 minutes. An aliquot (450 μL) of this was fractionated, and a […] I.S.-added reaction stopping solution (500 μL) and a 10 mmol/L NADPH solution (50 μL) were added, to obtain an unreacted sample (reaction time; 0 min). To the residue after fractionation, a 10 mmol/L NADPH solution (70 μL) was added, and incubation was carried out at 37° C. for 30 minutes, and an aliquot (500 μL) was fractionated, then, a 0.5 μM I.S.-added reaction stopping solution (500 μL) was added, preparing a reacted sample (reaction time; 30 min). […]

[2] = Test of S9 metabolism stability in rat; type: in vitro ADME; conditions: rat S9, NADPH, 37° C., reaction time 30 min
Method: as §1, §2, §3

[3] = Test of S9 metabolism stability in human; type: in vitro ADME; conditions: human S9, NADPH, 37° C., reaction time 30 min
Method: as §1, §2, §3

[4] = agonist activity, transformed human-derived CHP212 cells with pGL3-TATA-3×ARE luciferase reporter and pRC/RSV-hAR Kozak, 24 hours, read-out: EC50

`CCCN(CC(=O)O)c1cc(Br)c(C#N)s1` [Example 26, N-(4-bromo-5-cyanothiophen-2-yl)-N-propylglycine] showed an EC50 (androgen receptor; [4]) of over 10000 nM.
In the case of `CCCN(CC#N)c1cc(Br)c(C#N)s1` [Example 28, 3-bromo-5-[(cyanomethyl)(propyl)amino]thiophene-2-carbonitrile], the EC50 (androgen receptor; [4]) is reported as 580 nM.
Work on `COCCN(CCOC)c1cc(Br)c(C#N)s1` [Example 16, 5-[bis(2-methoxyethyl)amino]-3-bromothiophene-2-carbonitrile] yielded an EC50 (androgen receptor; [4]) of 1600 nM.
`CCCN(CC(F)(F)F)c1cc(Br)c(C#N)s1` [Example 23, 3-bromo-5-[(propyl)(2,2,2-trifluoroethyl)amino]thiophene-2-carbonitrile] gave an EC50 (androgen receptor) of 5.4 nM.
`CCCN(CC(F)(F)F)c1cc(C)c(C#N)s1` [Example 46, 5-[(propyl)(2,2,2-trifluoroethyl)amino]-3-methylthiophene-2-carbonitrile] gave an EC50 (androgen receptor) of 25.2 nM.
For `N#Cc1sc(N2CCCCC2C(O)C(F)(F)F)cc1C(F)(F)F` (stereo not drawn) [Example 43, 5-[2-(2,2,2-trifluoro-1-hydroxyethyl)piperidin-1-yl]-3-trifluoromethyl-thiophene-2-carbonitrile], the EC50 (androgen receptor) was over 10000 nM.
In the case of `CC(O)C1CCCCN1c1cc(Br)c(C#N)s1` (stereo not drawn) [Example 41, 3-bromo-5-[2-(1-hydroxyethyl)piperidin-1-yl]thiophene-2-carbonitrile], the EC50 (androgen receptor; [4]) is reported as 560 nM.
Work on `CCCN(CC1OCCO1)c1cc(Br)c(C#N)s1` [Example 31, 3-bromo-5-[(1,3-dioxolan-2-ylmethyl)(propyl)amino]thiophene-2-carbonitrile] yielded an EC50 (androgen receptor; [4]) of 750 nM.
In the case of `N#Cc1sc(N2CCCC2)cc1Br` [Example 8, 3-bromo-5-(pyrrolidin-1-yl)thiophene-2-carbonitrile], the EC50 (androgen receptor; [4]) is reported as 1400 nM.
With `CCCN(CC1CC1)c1cc(C#N)c(C(F)(F)F)s1` [Example 7, 5-[(cyclopropylmethyl)(propyl)amino]-2-(trifluoromethyl)thiophene-3-carbonitrile] the EC50 (androgen receptor) was 99.3 nM.
Work on `CC1CCN(c2cc(Br)c(C#N)s2)CC1` [Example 12, 3-bromo-5-(4-methylpiperidin-1-yl)thiophene-2-carbonitrile] yielded an EC50 (androgen receptor; [4]) of 1500 nM.
With `CCCN(CC(=O)NC)c1cc(Br)c(C#N)s1` [Example 25, N2-(4-bromo-5-cyanothiophen-2-yl)-N-methyl-N2-propylglycinamide] the EC50 (androgen receptor; [4]) was 1500 nM.
`CC(C)CN(C)c1cc(Br)c(C#N)s1` [Example 13, 3-bromo-5-[(methyl)(2-methylpropyl)amino]thiophene-2-carbonitrile] gave an EC50 (androgen receptor; [4]) of 1200 nM.
In the case of `CCC1CCCC(=O)N1c1cc(Br)c(C#N)s1` (stereo not drawn) [Example 35, 3-bromo-5-(2-ethyl-6-oxopiperidin-1-yl)thiophene-2-carbonitrile], the EC50 (androgen receptor; [4]) is reported as over 10000 nM.
For `CCCN(CC1CC1)c1cc(C(F)(F)F)c(C#N)s1` [Example 5, 5-[(cyclopropylmethyl)(propyl)amino]-3-(trifluoromethyl)thiophene-2-carbonitrile], the EC50 (androgen receptor) was 11.9 nM.
Work on `N#Cc1sc(N2CCCCC2C(O)C(F)(F)F)cc1Br` (racemic) [Example 40, 3-bromo-5-[2-(2,2,2-trifluoro-1-hydroxyethyl)piperidin-1-yl]thiophene-2-carbonitrile] yielded an EC50 (androgen receptor; [4]) of 14 nM.
For `CC1CCCCN1c1cc(Br)c(C#N)s1` (stereo not drawn) [Example 9, 3-bromo-5-(2-methylpiperidin-1-yl)thiophene-2-carbonitrile], the EC50 (androgen receptor; [4]) was 450 nM.
In the case of `CCCN(CC1CC1)c1cc(Br)c(C=O)s1` [Example 1, 3-bromo-5-[(cyclopropylmethyl)(propyl)amino]thiophene-2-carbaldehyde], the EC50 (androgen receptor; [4]) is reported as over 10000 nM.
`CCCN(CC=O)c1cc(Br)c(C#N)s1` [Example 32, 3-bromo-5-[(2-oxoethyl)(propyl)amino]thiophene-2-carbonitrile] gave an EC50 (androgen receptor; [4]) of over 10000 nM.
`C=CCN(CC=C)c1cc(Br)c(C#N)s1` [Example 15, 3-bromo-5-(diallylamino)thiophene-2-carbonitrile] gave an EC50 (androgen receptor; [4]) of 13.1 nM.
In the case of `N#Cc1sc(N2CCCCC2C(O)C(F)(F)F)cc1Br` (stereo not drawn), the “Residual ratio (%) mouse” value [1] is reported as 39.1%, the “Residual ratio (%) rat” value [2] is reported as 40.1% and the “Residual ratio (%) human” value [3] is reported as 73.4%.
Molecule `CCCN(CC(F)(F)F)c1cc(C(F)(F)F)c(C#N)s1` [Example 45, 5-[(propyl)(2,2,2-trifluoroethyl)amino]-3-trifluoromethylthiophene-2-carbonitrile] has an EC50 (androgen receptor) of 3.1 nM.
In the case of `N#Cc1sc(N2CCCCC2C#N)cc1Br` (stereo not drawn) [Example 47, 5-(2-cyanopiperidin-1-yl)-3-bromo-thiophene-2-carbonitrile], the EC50 (androgen receptor; [4]) is reported as 1500 nM.
`CCCN(CCC)c1cc(Br)c(C#N)s1` [Example 14, 3-bromo-5-(dipropylamino)thiophene-2-carbonitrile] gave an EC50 (androgen receptor; [4]) of 43.3 nM.
Molecule `CCCC1CCCCN1c1cc(Br)c(C#N)s1` (stereo not drawn) [Example 18, 3-bromo-5-(2-propylpiperidin-1-yl)thiophene-2-carbonitrile] has an EC50 (androgen receptor; [4]) of 36.2 nM.
In the case of `CCC1CCCCN1c1cc(Br)c(C#N)s1` (stereo not drawn) [Example 17, 3-bromo-5-(2-ethylpiperidin-1-yl)thiophene-2-carbonitrile], the EC50 (androgen receptor; [4]) is reported as 4.9 nM.
In the case of `CCCN(CC(=O)OCC)c1cc(Br)c(C#N)s1` [Example 24, N-(4-bromo-5-cyanothiophen-2-yl)-N-propylglycine ethyl ester], the EC50 (androgen receptor; [4]) is reported as over 10000 nM.
`CCCN(CC1CC1)c1cc(Br)c(C#N)s1` [Example 2, 3-bromo-5-[(cyclopropylmethyl)(propyl)amino]thiophene-2-carbonitrile] showed an EC50 (androgen receptor; [4]) of 10.6 nM.
